Columns and labels:
[1] = tested on: patient-derived pancreatic tumor fragments (PDX004); experiment: Human pancreatic PDX004 model; assay type: in vivo, B-NDG mice; conditions: Day 35
Excerpt: The tested antibody and the frequency of administration was similar to Table 28.

[2] = tested on: NCI-H1975 cells; experiment: NCI-H1975 xenograft model in B-NDG mice; assay type: in vivo; conditions: Table 21 study
Protocol: The lengths of the long axis and the short axis of the tumor were measured and the volume of the tumor was calculated as 0.5×(long axis)×(short axis)^2. The tumor growth inhibition (TGI) was calculated using the following formula: TGI (%)=[1−(Ti−T0)/(Vi−V0)]×100. Ti is the average tumor volume in the treatment group on day i. T0 is the average tumor volume in the treatment group on day zero. Vi is the average tumor volume in the control group on day i. V0 is the average tumor volume in the control group on day zero. T-test was performed for statistical analysis. […] P<0.05 is a threshold to indicate significant difference.

[3] = tested on: human lung cancer cell line NCI-H1975; experiment: In vitro killing activity, IncuCyte; assay type: cell-based
Protocol: Different concentrations of purified antibodies (10 μg/mL, 3.33 μg/mL, 1.11 μg/mL, 0.37 μg/mL, 0.123 μg/mL, 0.041 μg/mL, 0.013 μg/mL, and 0.004 μg/mL) and corresponding ADCs were used to treat human lung cancer cell line NCI-H1975 (5×10^3) cultured in a cell culture plate, and the killing activity was detected after 72 hours of incubation in IncuCyte (Sartorius AG, IncuCyte® S3).

[4] = tested on: patient-derived lung tumor fragments (PDX001); experiment: Human lung PDX001 model; assay type: in vivo, B-NDG mice; conditions: for TGI (%): Day 23; for Tumor volume Day 0: day of grouping; for Survival: surviving/total mice
[5] = tested on: SNU-5 cells; experiment: SNU-5 xenograft model (gastric carcinoma) in B-NDG mice; assay type: in vivo; conditions: for Tumor volume Day 10: 10 days after grouping; for TGI (%): Day 24; for Tumor volume Day 0: day of grouping; for Tumor volume Day 24: end of experiment; for Survival: surviving/total mice
[6] = tested on: NCI-H292 cells; experiment: Internalization of antibodies targeting EGFR and/or MET in NCI-H292 cells; assay type: cell-based, human; conditions: NCI-H292, 1 hour
Protocol: (§1) Anti-EGFR antibodies, anti-MET antibodies, or anti-EGFR/MET bispecific antibodies, together with the pHAb-Goat anti-human IgG secondary antibody were added to NCI-H1975 cells (ATCC, Reference No.: CRL-5908), HCC827 cells (ATCC, Reference No.: CRL-2868) and NCI-H292 (ATCC, Reference No.: CRL-1848) cells, respectively, and incubated for 1 hour. The cells were centrifuged and washed with FACS buffer. MFI was measured using a flow cytometer. Endocytosis rates of antibodies were calculated. For isotype control (ISO), an antibody targeting an irrelevant target protein was used.

[7] = tested on: HCC827 cells; experiment: Internalization of antibodies targeting EGFR and/or MET in HCC827 cells; assay type: cell-based, human; conditions: HCC827, 1 hour
Protocol: as §1

[8] = tested on: NCI-H292 cells; experiment: NCI-H292 xenograft model in B-NDG mice; conditions: for Tumor volume Day 14: 14 days after grouping; for Tumor volume Day 14 / Tumor volume Day 0 / Tumor volume Day 24: 1×10^7 NCI-H292 cells, about 300 mm^3 at grouping; for TGI (%): Day 24; for TGI (%) / Survival: 1×10^7 NCI-H292 cells experiment; for Tumor volume Day 0: day of grouping; for Tumor volume Day 24: end of experiment; for Survival: surviving/total mice
Protocol: The antibodies were tested for their effect on tumor growth in vivo in a model of lung carcinoma. About 1×10^7 NCI-H292 cells were injected subcutaneously in B-NDG mice. When the tumor in mice reached a volume of about 300 mm^3, the mice were randomly placed into different groups based on the volume of the tumor. The mice were then injected with PBS or antibodies by intravenous (i.v.) administration. The frequency of administration was once a week (2 administrations in total).

[9] = tested on: patient-derived pancreatic tumor fragments (PDX003); experiment: Human pancreatic PDX003 model; conditions: for TGI (%): Day 21; for Tumor volume Day 0: day of grouping; for Survival: surviving/total mice
Protocol: The antibodies were tested for their effect in two human pancreatic PDX (PDX003 and PDX004) models.
In PDX003 model, B-NDG mice were engrafted in the right flank with patient-derived pancreatic tumor fragments (2 mm×2 mm×2 mm). When the tumors in the mice reached a volume of about 300-400 mm^3, the mice were randomly placed into different groups based on the volume of the tumor.

[10] = tested on: patient-derived lung tumor fragments (PDX002); experiment: Human lung PDX002 model; assay type: in vivo, B-NDG mice; conditions: once a week x2; for Tumor volume Day 0: day of grouping; for Survival: surviving/total mice
Protocol: The control group mice were injected with PBS (G1).

With “Amivantamab analog: analog of Amivantamab, fully human bispecific antibody targeting EGFR and MET; SEQ ID NOs: 77-80” as the substance, how does the TGI (%) ([1]; 1 mg/kg) read?
Its TGI (%) is −13.3%.

What about the TGI (%) ([1]; 3 mg/kg) of the same substance?
The TGI (%) was −0.6%.

What about the TGI (%) ([1]; 10 mg/kg) of the same substance?
The TGI (%) was 4.1%.

What about the Survival ([2]; 10 mg/kg i.v. QW x2) of the same substance?
Its Survival is 5/5.

What about the “Tumor volume Day 11” value ([2]; 10 mg/kg i.v. QW x2) of the same substance?
Its value is 143 ± 20 mm^3.

And the “Tumor volume Day 21” value ([2]; 10 mg/kg i.v. QW x2)?
Its value is 294 ± 40 mm^3.

And the “TGI (%)” value ([2]; 10 mg/kg i.v. QW x2, Day 21)?
The value was 98.4%.

What about the “Tumor volume Day 0” value ([2]; 10 mg/kg i.v. QW x2, day of grouping) of the same substance?
Its value is 260 ± 19 mm^3.

What about the IC50 ([3]; NCI-H1975, 72 hours) of the same substance?
Its IC50 is “Not detected”.

What about the “ability to kill NCI-H1975” value ([3]; highest concentration of 10 μg/m) of the same substance?
Its value is “neither E-6C4-M-2F11 nor Amivantamab analog has the ability to kill”.

What about the “Tumor volume Day 12” value ([4]; 1 mg/kg i.v. QW x2) of the same substance?
Its value is 1144 ± 86 mm^3.

What about the “Tumor volume Day 23” value ([4]; 1 mg/kg i.v. QW x2) of the same substance?
The value was 3077 ± 235 mm^3.

And the “TGI (%)” value ([4]; 1 mg/kg i.v. QW x2)?
The value was −24.7%.

What about the “Tumor volume Day 0” value ([4]; 1 mg/kg i.v. QW x2) of the same substance?
The value was 223 ± 18 mm^3.

And the Survival ([4]; 1 mg/kg i.v. QW x2)?
The Survival was 4/6.

And the “Tumor volume Day 12” value ([4]; 3 mg/kg i.v. QW x2)?
The value was 1448 ± 195 mm^3.

And the “Tumor volume Day 23” value ([4]; 3 mg/kg i.v. QW x2)?
Its value is 2465 ± 145 mm^3.

And the “TGI (%)” value ([4]; 3 mg/kg i.v. QW x2)?
The value was 2.0%.

What about the “Tumor volume Day 0” value ([4]; 3 mg/kg i.v. QW x2) of the same substance?
The value was 223 ± 18 mm^3.

What about the Survival ([4]; 3 mg/kg i.v. QW x2) of the same substance?
Its Survival is 3/6.

What about the “Tumor volume Day 12” value ([4]; 10 mg/kg i.v. QW x2) of the same substance?
Its value is 1132 ± 77 mm^3.

And the “Tumor volume Day 23” value ([4]; 10 mg/kg i.v. QW x2)?
The value was 2666 ± 212 mm^3.

What about the “TGI (%)” value ([4]; 10 mg/kg i.v. QW x2) of the same substance?
Its value is −6.8%.

And the “Tumor volume Day 0” value ([4]; 10 mg/kg i.v. QW x2)?
Its value is 223 ± 22 mm^3.

What about the Survival ([4]; 10 mg/kg i.v. QW x2) of the same substance?
The Survival was 6/6.

What about the “Tumor volume Day 10” value ([5]; 3 mg/kg i.v. QW x2) of the same substance?
Its value is 294 ± 10 mm^3.

What about the “TGI (%)” value ([5]; 3 mg/kg i.v. QW x2) of the same substance?
The value was 8.4%.

And the “Tumor volume Day 0” value ([5]; 3 mg/kg i.v. QW x2)?
Its value is 200 ± 5 mm^3.

And the “Tumor volume Day 24” value ([5]; 3 mg/kg i.v. QW x2)?
The value was 1111 ± 64 mm^3.

And the Survival ([5]; 3 mg/kg i.v. QW x2)?
Its Survival is 5/5.

What about the “Tumor volume Day 10” value ([5]; 10 mg/kg i.v. QW x2) of the same substance?
Its value is 72 ± 9 mm^3.

And the “TGI (%)” value ([5]; 10 mg/kg i.v. QW x2)?
Its value is 106.4%.

What about the “Tumor volume Day 0” value ([5]; 10 mg/kg i.v. QW x2) of the same substance?
Its value is 200 ± 9 mm^3.

What about the “Tumor volume Day 24” value ([5]; 10 mg/kg i.v. QW x2) of the same substance?
The value was 136 ± 35 mm^3.

What about the Survival ([5]; 10 mg/kg i.v. QW x2) of the same substance?
The Survival was 5/5.

What about the MFI [6] of the same substance?
Its MFI is 13815.

And the “Positive Population” value [6]?
The value was 67.00%.

And the MFI [7]?
Its MFI is 30401.

And the “Positive Population” value [7]?
The value was 88.90%.

What about the “Tumor volume Day 14” value ([8]; 1 mg/kg i.v. QW x2) of the same substance?
Its value is 1338 ± 243 mm^3.

And the “TGI (%)” value ([8]; 1 mg/kg i.v. QW x2)?
The value was 0.4%.

And the “Tumor volume Day 0” value ([8]; 1 mg/kg i.v. QW x2)?
The value was 311 ± 14 mm^3.

What about the “Tumor volume Day 24” value ([8]; 1 mg/kg i.v. QW x2) of the same substance?
Its value is 2485 ± 536 mm^3.

What about the Survival ([8]; 1 mg/kg i.v. QW x2) of the same substance?
Its Survival is 4/5.

And the “Tumor volume Day 14” value ([8]; 3 mg/kg i.v. QW x2)?
Its value is 1380 ± 320 mm^3.

And the “TGI (%)” value ([8]; 3 mg/kg i.v. QW x2)?
Its value is 26.2%.

What about the “Tumor volume Day 0” value ([8]; 3 mg/kg i.v. QW x2) of the same substance?
The value was 314 ± 11 mm^3.

And the “Tumor volume Day 24” value ([8]; 3 mg/kg i.v. QW x2)?
Its value is 1925 ± 389 mm^3.

And the Survival ([8]; 3 mg/kg i.v. QW x2)?
Its Survival is 4/5.

And the “Tumor volume Day 14” value ([8]; 10 mg/kg i.v. QW x2)?
The value was 915 ± 150 mm^3.

What about the “TGI (%)” value ([8]; 10 mg/kg i.v. QW x2) of the same substance?
Its value is 44.5%.

And the “Tumor volume Day 0” value ([8]; 10 mg/kg i.v. QW x2)?
The value was 327 ± 11 mm^3.

What about the “Tumor volume Day 24” value ([8]; 10 mg/kg i.v. QW x2) of the same substance?
The value was 1538 ± 267 mm^3.

And the Survival ([8]; 10 mg/kg i.v. QW x2)?
Its Survival is 4/5.

And the “Tumor volume Day 11” value ([9]; 1 mg/kg i.v. QW x2)?
The value was 811 ± 65 mm^3.

What about the “Tumor volume Day 21” value ([9]; 1 mg/kg i.v. QW x2) of the same substance?
Its value is 1410 ± 130 mm^3.

What about the “TGI (%)” value ([9]; 1 mg/kg i.v. QW x2) of the same substance?
The value was −2.0%.

What about the “Tumor volume Day 0” value ([9]; 1 mg/kg i.v. QW x2) of the same substance?
Its value is 340 ± 18 mm^3.

What about the Survival ([9]; 1 mg/kg i.v. QW x2) of the same substance?
The Survival was 6/6.

What about the “Tumor volume Day 11” value ([9]; 3 mg/kg i.v. QW x2) of the same substance?
Its value is 705 ± 62 mm^3.

What about the “Tumor volume Day 21” value ([9]; 3 mg/kg i.v. QW x2) of the same substance?
The value was 1216 ± 96 mm^3.

What about the “TGI (%)” value ([9]; 3 mg/kg i.v. QW x2) of the same substance?
Its value is 16.5%.

What about the “Tumor volume Day 0” value ([9]; 3 mg/kg i.v. QW x2) of the same substance?
Its value is 340 ± 18 mm^3.

What about the Survival ([9]; 3 mg/kg i.v. QW x2) of the same substance?
The Survival was 6/6.

And the “Tumor volume Day 11” value ([9]; 10 mg/kg i.v. QW x2)?
Its value is 666 ± 60 mm^3.

What about the “Tumor volume Day 21” value ([9]; 10 mg/kg i.v. QW x2) of the same substance?
Its value is 1146 ± 123 mm^3.

What about the “TGI (%)” value ([9]; 10 mg/kg i.v. QW x2) of the same substance?
The value was 23.2%.

And the “Tumor volume Day 0” value ([9]; 10 mg/kg i.v. QW x2)?
The value was 340 ± 16 mm^3.

What about the Survival ([9]; 10 mg/kg i.v. QW x2) of the same substance?
The Survival was 6/6.

What about the “Tumor volume Day 10” value ([10]; 1 mg/kg) of the same substance?
The value was 805 ± 99 mm^3.

What about the “Tumor volume Day 21” value ([10]; 1 mg/kg) of the same substance?
Its value is 2279 ± 253 mm^3.

And the “Tumor volume Day 0” value ([10]; 1 mg/kg)?
Its value is 267 ± 12 mm^3.

What about the Survival ([10]; 1 mg/kg) of the same substance?
Its Survival is 0/6.

And the “Tumor volume Day 10” value ([10]; 3 mg/kg)?
The value was 686 ± 55 mm^3.

And the “Tumor volume Day 21” value ([10]; 3 mg/kg)?
Its value is 1791 ± 214 mm^3.

And the “Tumor volume Day 35” value ([10]; 3 mg/kg)?
The value was 3509 ± 239 mm^3.

And the “TGI (%)” value ([10]; 3 mg/kg, Day 35)?
Its value is −7.1%.

And the “Tumor volume Day 0” value ([10]; 3 mg/kg)?
Its value is 267 ± 13 mm^3.

And the Survival ([10]; 3 mg/kg)?
Its Survival is 3/6.

Source: patent publication US20250382373A1, “ANTI-EGFR/MET ANTIBODIES AND USES THEREOF” (Biocytogen Pharmaceuticals (Beijing) Co., Ltd., priority 2022, published 2025)
